According to PMC5218480 (PLoS ONE, 2017):

Test system: MV-4-11 cells
Assay: Gene expression microarray analysis (Affymetrix PrimeView) and GSEA
Format: cell-based, human
Parameters: RFU PODN (11730768_x_at) / Fold change /veh PODN (11730768_x_at) / RFU LINC00158 (11744669_a_at) / Fold change /veh LINC00158 (11744669_a_at) / RFU DUSP10 (11751237_a_at) / Fold change /veh DUSP10 (11751237_a_at) / RFU ID3 (11757404_x_at) / Fold change /veh ID3 (11757404_x_at) / RFU PLEKHG5 (11737974_s_at) / Fold change /veh PLEKHG5 (11737974_s_at) / RFU LRRC4B (11730491_at) / Fold change /veh LRRC4B (11730491_at) / RFU GIMAP4 (11747438_a_at) / Fold change /veh GIMAP4 (11747438_a_at) / RFU KRT8 (11758183_x_at) / Fold change /veh KRT8 (11758183_x_at) / RFU CNN1 (11734310_a_at) / Fold change /veh CNN1 (11734310_a_at) / RFU VPS37D (11726825_at) / Fold change /veh VPS37D (11726825_at) / RFU C10orf10 (11716522_x_at) / Fold change /veh C10orf10 (11716522_x_at) / RFU KIR2DL2 /// KIR2DL4 /// KIR2DL5A /// KIR2DL5B /// KIR2DS1 /// KIR2DS2 /// KIR2DS3 /// KIR2DS4 /// KIR3DL3 /// KIR3DL3 /// KIR3DS1 (11738374_at) / Fold change /veh KIR2DL2 /// KIR2DL4 /// KIR2DL5A /// KIR2DL5B /// KIR2DS1 /// KIR2DS2 /// KIR2DS3 /// KIR2DS4 /// KIR3DL3 /// KIR3DL3 /// KIR3DS1 (11738374_at) / RFU C1QL1 (11718748_at) / Fold change /veh C1QL1 (11718748_at) / RFU TMPRSS4 (11747572_a_at) / Fold change /veh TMPRSS4 (11747572_a_at) / RFU HAMP (11756126_x_at) / Fold change /veh HAMP (11756126_x_at) / RFU RNFT2 (11725882_a_at) / Fold change /veh RNFT2 (11725882_a_at) / RFU NR4A2 (11747474_a_at) / Fold change /veh NR4A2 (11747474_a_at) / RFU ABCC12 (11746883_a_at) / Fold change /veh ABCC12 (11746883_a_at) / RFU TMEM136 (11760407_x_at) / Fold change /veh TMEM136 (11760407_x_at) / RFU CLDN22 /// WWC2 (11732394_at) / Fold change /veh CLDN22 /// WWC2 (11732394_at) / RFU HLA-DPB1 (11760878_x_at) / Fold change /veh HLA-DPB1 (11760878_x_at) / RFU SPINT1 (11716480_a_at) / Fold change /veh SPINT1 (11716480_a_at) / RFU GAP43 (11754022_s_at) / Fold change /veh GAP43 (11754022_s_at) / RFU A4GNT (11735810_at) / Fold change /veh A4GNT (11735810_at) / RFU PRB3 (11715151_x_at) / Fold change /veh PRB3 (11715151_x_at) / RFU TUBB4B (11761932_at) / Fold change /veh TUBB4B (11761932_at) / RFU CAPN14 (11732068_a_at) / Fold change /veh CAPN14 (11732068_a_at) / RFU TMCC2 (11721928_a_at) / Fold change /veh TMCC2 (11721928_a_at) / RFU IRGQ (11745062_a_at) / Fold change /veh IRGQ (11745062_a_at) / RFU FAM174B (11720279_a_at) / Fold change /veh FAM174B (11720279_a_at) / RFU TMPRSS4 (11748680_a_at) / Fold change /veh TMPRSS4 (11748680_a_at) / RFU FAM212B (11763350_a_at) / Fold change /veh FAM212B (11763350_a_at) / RFU PLEKHG5 (11743358_a_at) / Fold change /veh PLEKHG5 (11743358_a_at) / RFU ZSCAN30 (11745921_a_at) / Fold change /veh ZSCAN30 (11745921_a_at) / RFU CMKLR1 (11741424_a_at) / Fold change /veh CMKLR1 (11741424_a_at) / RFU LOC101060620 /// MAPK8IP1 (11723275_at) / Fold change /veh LOC101060620 /// MAPK8IP1 (11723275_at) / RFU SPTSSB (11747773_x_at) / Fold change /veh SPTSSB (11747773_x_at) / RFU PRSS12 (11739890_at) / Fold change /veh PRSS12 (11739890_at) / RFU BIN1 (11741810_x_at) / Fold change /veh BIN1 (11741810_x_at) / RFU WNT11 (11732464_a_at) / Fold change /veh WNT11 (11732464_a_at) / RFU C10orf10 (11716521_a_at) / Fold change /veh C10orf10 (11716521_a_at) / RFU C5orf56 (11738089_at) / Fold change /veh C5orf56 (11738089_at) / RFU CYB561 (11721691_x_at) / Fold change /veh CYB561 (11721691_x_at) / RFU ANKRD19P (11752326_a_at) / Fold change /veh ANKRD19P (11752326_a_at) / RFU OR2T12 /// OR2T33 /// OR2T8 (11738714_s_at) / Fold change /veh OR2T12 /// OR2T33 /// OR2T8 (11738714_s_at) / RFU VCAN (11748164_a_at) / Fold change /veh VCAN (11748164_a_at) / RFU JSRP1 (11732532_at) / Fold change /veh JSRP1 (11732532_at) / RFU KRTAP10-11 (11738290_x_at) / Fold change /veh KRTAP10-11 (11738290_x_at) / RFU MYO3A (11730013_a_at) / Fold change /veh MYO3A (11730013_a_at) / RFU EBF3 (11725865_a_at) / Fold change /veh EBF3 (11725865_a_at) / RFU CAMK2N1 (11719241_x_at) / Fold change /veh CAMK2N1 (11719241_x_at) / RFU C5orf56 (11738088_a_at) / Fold change /veh C5orf56 (11738088_a_at) / RFU OLFML3 (11715873_a_at) / Fold change /veh OLFML3 (11715873_a_at) / RFU LOC100653217 /// NTM (11731650_a_at) / Fold change /veh LOC100653217 /// NTM (11731650_a_at) / RFU MAPK11 (11762145_a_at) / Fold change /veh MAPK11 (11762145_a_at) / RFU FIZ1 (11724087_x_at) / Fold change /veh FIZ1 (11724087_x_at) / RFU OASL (11726364_x_at) / Fold change /veh OASL (11726364_x_at) / RFU SOX15 (11748057_x_at) / Fold change /veh SOX15 (11748057_x_at) / RFU CD79A (11719716_a_at) / Fold change /veh CD79A (11719716_a_at) / RFU HIST1H1D (11736915_at) / Fold change /veh HIST1H1D (11736915_at) / RFU CASKIN2 (11723855_a_at) / Fold change /veh CASKIN2 (11723855_a_at) / RFU LOC730098 (11760151_x_at) / Fold change /veh LOC730098 (11760151_x_at) / RFU OR4N2 (11742367_at) / Fold change /veh OR4N2 (11742367_at) / RFU PRRT2 (11749266_a_at) / Fold change /veh PRRT2 (11749266_a_at) / RFU SNX32 (11753110_a_at) / Fold change /veh SNX32 (11753110_a_at) / RFU CDHR5 (11726645_a_at) / Fold change /veh CDHR5 (11726645_a_at) / RFU RCAN1 (11760418_a_at) / Fold change /veh RCAN1 (11760418_a_at) / RFU FAM167A (11723789_a_at) / Fold change /veh FAM167A (11723789_a_at) / RFU FAM26E (11764081_at) / Fold change /veh FAM26E (11764081_at) / RFU ISYNA1 (11749810_s_at) / Fold change /veh ISYNA1 (11749810_s_at) / RFU ACY1 (11761880_at) / Fold change /veh ACY1 (11761880_at) / RFU 11764098_at / Fold change /veh 11764098_at / RFU SAMD14 (11745864_x_at) / Fold change /veh SAMD14 (11745864_x_at) / RFU NPB (11741838_a_at) / Fold change /veh NPB (11741838_a_at) / RFU TMPRSS6 (11731388_a_at) / Fold change /veh TMPRSS6 (11731388_a_at) / RFU KRTAP10-2 (11738614_at) / Fold change /veh KRTAP10-2 (11738614_at) / RFU ARHGAP8 /// PRR5-ARHGAP8 (11727945_x_at) / Fold change /veh ARHGAP8 /// PRR5-ARHGAP8 (11727945_x_at) / RFU KRTAP5-7 /// NADSYN1 (11734609_at) / Fold change /veh KRTAP5-7 /// NADSYN1 (11734609_at) / RFU RASL12 (11751679_a_at) / Fold change /veh RASL12 (11751679_a_at) / RFU CDKN2B (11736163_a_at) / Fold change /veh CDKN2B (11736163_a_at) / RFU PRF1 (11729649_at) / Fold change /veh PRF1 (11729649_at) / RFU, ZNF638 /// ZNF638-IT1 / Fold change vs veh, ZNF638 /// ZNF638-IT1 / RFU, PANK3 / Fold change vs veh, PANK3 / RFU, SH3YL1 / Fold change vs veh, SH3YL1 / RFU, ZEB2 / Fold change vs veh, ZEB2 / RFU, NRIP1 / Fold change vs veh, NRIP1 / RFU, PTTG1IP / Fold change vs veh, PTTG1IP / RFU, CAPN2 / Fold change vs veh, CAPN2 / RFU, MED14 / Fold change vs veh, MED14 / RFU, SNORA58 / Fold change vs veh, SNORA58 / RFU, C1orf63 / Fold change vs veh, C1orf63 / RFU, LRRFIP1 / Fold change vs veh, LRRFIP1 / RFU, NDUFAF7 / Fold change vs veh, NDUFAF7 / RFU, SLC12A2 / Fold change vs veh, SLC12A2 / RFU, IBTK / Fold change vs veh, IBTK / RFU, ESF1 / Fold change vs veh, ESF1 / Fold change vs veh, TMEM50B / RFU, TAOK1 / Fold change vs veh, TAOK1 / RFU, ACBD3 / Fold change vs veh, ACBD3 / RFU, TMA16 / Fold change vs veh, TMA16 / RFU, RWDD3 / Fold change vs veh, RWDD3 / RFU, BCAT1 / Fold change vs veh, BCAT1 / RFU, EDEM3 / Fold change vs veh, EDEM3 / RFU, TMEM33 / Fold change vs veh, TMEM33 / RFU, WDR75 / Fold change vs veh, WDR75 / RFU, AHCTF1 / Fold change vs veh, AHCTF1 / RFU, TFRC / Fold change vs veh, TFRC / RFU, ZDHHC17 / Fold change vs veh, ZDHHC17 / RFU, NOM1 / Fold change vs veh, NOM1 / RFU, ARL8B / Fold change vs veh, ARL8B / RFU, ZBTB11 / Fold change vs veh, ZBTB11 / RFU, TAMM41 / Fold change vs veh, TAMM41 / RFU, KIAA1704 /// LOC100996395 / Fold change vs veh, KIAA1704 /// LOC100996395 / RFU, ING1 / Fold change vs veh, ING1 / RFU, TRMT61B / Fold change vs veh, TRMT61B / RFU, FUBP3 / Fold change vs veh, FUBP3 / RFU, TP53 / Fold change vs veh, TP53 / RFU, TNKS2 / Fold change vs veh, TNKS2 / RFU, ZFP14 / Fold change vs veh, ZFP14 / RFU, ACTR2 / Fold change vs veh, ACTR2 / RFU, PPP3R1 / Fold change vs veh, PPP3R1 / RFU, PIK3R1 / Fold change vs veh, PIK3R1 / RFU, HNRNPA1 / Fold change vs veh, HNRNPA1 / RFU, RNF170 / Fold change vs veh, RNF170 / RFU, ZNF28 / Fold change vs veh, ZNF28 / RFU, RNGTT / Fold change vs veh, RNGTT / RFU, OGT / Fold change vs veh, OGT / RFU, BRD1 / Fold change vs veh, BRD1 / RFU, MARS / Fold change vs veh, MARS / RFU, ZNF655 / Fold change vs veh, ZNF655 / RFU, FAHD1 / Fold change vs veh, FAHD1 / RFU, BDP1 / Fold change vs veh, BDP1 / RFU, LRRCC1 / Fold change vs veh, LRRCC1 / RFU, ARID1A / Fold change vs veh, ARID1A / RFU, ZNF146 / Fold change vs veh, ZNF146 / RFU, ZNF330 / Fold change vs veh, ZNF330 / RFU, GPN3 / Fold change vs veh, GPN3 / RFU, C9orf123 / Fold change vs veh, C9orf123 / RFU, N4BP2L2 / Fold change vs veh, N4BP2L2 / RFU, ARFIP1 / Fold change vs veh, ARFIP1 / RFU, FAM179B / Fold change vs veh, FAM179B / RFU, BCL10 / Fold change vs veh, BCL10 / RFU, UHRF1BP1L / Fold change vs veh, UHRF1BP1L / RFU, BET1 / Fold change vs veh, BET1 / RFU, CNOT2 / Fold change vs veh, CNOT2 / RFU, ZNF268 / Fold change vs veh, ZNF268 / Fold change vs veh, ZNF507 / RFU, DGCR2 / Fold change vs veh, DGCR2 / RFU, WDSUB1 / Fold change vs veh, WDSUB1 / Fold change vs veh, HSP90B1 /// MIR3652 / RFU, ADSS / Fold change vs veh, ADSS / RFU, GK / Fold change vs veh, GK / RFU, ZNF148 / Fold change vs veh, ZNF148 / RFU, TAF9 / Fold change vs veh, TAF9 / RFU, SLC1A5 / Fold change vs veh, SLC1A5 / RFU, SLMO2 / Fold change vs veh, SLMO2 / RFU, ABCC4 / Fold change vs veh, ABCC4 / RFU, LOC101060439 /// RAP1B / Fold change vs veh, LOC101060439 /// RAP1B / RFU, RFX7 / Fold change vs veh, RFX7 / RFU, GTPBP10 / Fold change vs veh, GTPBP10 / RFU, CNEP1R1 / Fold change vs veh, CNEP1R1 / RFU, BIVM-ERCC5 /// ERCC5 / Fold change vs veh, BIVM-ERCC5 /// ERCC5 / RFU, ILF3 / Fold change vs veh, ILF3 / RFU 11762660_at / Fold change /veh 11762660_at / RFU VCAN (11757783_s_at) / Fold change /veh VCAN (11757783_s_at) / RFU DDX43 (11728927_at) / Fold change /veh DDX43 (11728927_at) / RFU KRT8 (11758188_x_at) / Fold change /veh KRT8 (11758188_x_at) / RFU NKD1 (11759106_at) / Fold change /veh NKD1 (11759106_at) / RFU SRD5A1 (11742802_a_at) / Fold change /veh SRD5A1 (11742802_a_at) / RFU TPSAB1 /// TPSB2 (11721975_s_at) / Fold change /veh TPSAB1 /// TPSB2 (11721975_s_at) / RFU GSTM3 (11746129_a_at) / Fold change /veh GSTM3 (11746129_a_at) / RFU IL23R (11737362_x_at) / Fold change /veh IL23R (11737362_x_at) / RFU TMEM51 (11727254_a_at) / Fold change /veh TMEM51 (11727254_a_at) / RFU PIWIL2 (11732686_x_at) / Fold change /veh PIWIL2 (11732686_x_at) / RFU ORM1 (11744905_x_at) / Fold change /veh ORM1 (11744905_x_at) / RFU CCDC152 (11743942_at) / Fold change /veh CCDC152 (11743942_at) / RFU ECM1 (11717891_a_at) / Fold change /veh ECM1 (11717891_a_at) / RFU IL23R (11748794_a_at) / Fold change /veh IL23R (11748794_a_at) / RFU TNFAIP8L3 (11732012_x_at) / Fold change /veh TNFAIP8L3 (11732012_x_at) / RFU MBOAT4 (11741988_at) / Fold change /veh MBOAT4 (11741988_at) / RFU 11764193_at / Fold change /veh 11764193_at / RFU TMEM53 (11763286_at) / Fold change /veh TMEM53 (11763286_at) / RFU MAGEB2 (11727129_at) / Fold change /veh MAGEB2 (11727129_at) / RFU TMEM200A (11744735_a_at) / Fold change /veh TMEM200A (11744735_a_at) / RFU CCDC152 (11751479_a_at) / Fold change /veh CCDC152 (11751479_a_at) / RFU FAM211A (11726209_a_at) / Fold change /veh FAM211A (11726209_a_at) / RFU RGS16 (11746705_a_at) / Fold change /veh RGS16 (11746705_a_at) / RFU VCAN (11755009_s_at) / Fold change /veh VCAN (11755009_s_at) / RFU RHOB (11743442_s_at) / Fold change /veh RHOB (11743442_s_at) / RFU RGS16 (11720943_a_at) / Fold change /veh RGS16 (11720943_a_at) / RFU RGS16 (11720944_at) / Fold change /veh RGS16 (11720944_at) / RFU, VPS4B / Fold change vs veh, VPS4B / RFU, CREB1 / Fold change vs veh, CREB1 / RFU, DNAJC13 / Fold change vs veh, DNAJC13 / RFU, GNAQ / Fold change vs veh, GNAQ / RFU, CDK5R1 / Fold change vs veh, CDK5R1 / RFU, ZRANB3 / Fold change vs veh, ZRANB3 / RFU, CUL4A / Fold change vs veh, CUL4A / RFU, CCNY / Fold change vs veh, CCNY / RFU, UFL1 / Fold change vs veh, UFL1 / RFU, COG3 / Fold change vs veh, COG3 / RFU, DIAPH2 / Fold change vs veh, DIAPH2 / RFU, SKA2 / Fold change vs veh, SKA2 / RFU, AFF3 / Fold change vs veh, AFF3 / RFU, LMF1 / Fold change vs veh, LMF1 / RFU, IPO11 / Fold change vs veh, IPO11 / RFU, DFFB / Fold change vs veh, DFFB / RFU, FOXP1 / Fold change vs veh, FOXP1 / RFU, CARD8 / Fold change vs veh, CARD8 / RFU, STRN3 / Fold change vs veh, STRN3 / RFU, ADK / Fold change vs veh, ADK / RFU, RASSF2 / Fold change vs veh, RASSF2 / RFU, WIPF1 / Fold change vs veh, WIPF1 / RFU, LARP1B / Fold change vs veh, LARP1B / RFU, RASA1 / Fold change vs veh, RASA1 / RFU, RB1 / Fold change vs veh, RB1 / RFU, PPFIA1 / Fold change vs veh, PPFIA1 / RFU, MAT2A / Fold change vs veh, MAT2A / RFU, CCT5 / Fold change vs veh, CCT5 / RFU, WDR92 / Fold change vs veh, WDR92 / RFU, CUX1 / Fold change vs veh, CUX1 / RFU, TTC7A / Fold change vs veh, TTC7A / RFU, TMEM135 / Fold change vs veh, TMEM135 / RFU, DEPTOR / Fold change vs veh, DEPTOR / RFU, CPM / Fold change vs veh, CPM / RFU, DNAJB6 / Fold change vs veh, DNAJB6 / RFU, CACNA2D3 / Fold change vs veh, CACNA2D3 / RFU, DTX4 / Fold change vs veh, DTX4 / RFU, TFCP2 / Fold change vs veh, TFCP2 / RFU, GMCL1 /// GMCL1P1 / Fold change vs veh, GMCL1 /// GMCL1P1 / RFU, AEBP2 / Fold change vs veh, AEBP2 / RFU, SNHG1 /// SNORD22 /// SNORD25 /// SNORD26 /// SNORD27 /// SNORD28 /// SNORD29 /// SNORD31 / Fold change vs veh, SNHG1 /// SNORD22 /// SNORD25 /// SNORD26 /// SNORD27 /// SNORD28 /// SNORD29 /// SNORD31 / Fold change (Aza/veh), C12orf56 (ProbeSet 11735607_a_at) / Fold change (ACY-1035/veh), C12orf56 (ProbeSet 11735607_a_at) / Fold change (Aza/veh), FGFR1OP (ProbeSet 11751329_s_at) / Fold change (ACY-1035/veh), FGFR1OP (ProbeSet 11751329_s_at) / Fold change (Aza/veh), VPS36 (ProbeSet 11739960_a_at) / Fold change (ACY-1035/veh), VPS36 (ProbeSet 11739960_a_at) / RFU SYPL1 (11715823_x_at) / Fold change /veh SYPL1 (11715823_x_at) / RFU IGFBP7 (11715501_s_at) / Fold change /veh IGFBP7 (11715501_s_at) / RFU REEP3 (11722064_at) / Fold change /veh REEP3 (11722064_at) / RFU IGLL1 (11728026_x_at) / Fold change /veh IGLL1 (11728026_x_at): dose or concentration left out as unconfirmed
Conditions: ProbeSet 11763895_x_at; LIST B

Nc1ncn([C@@H]2O[C@H](CO)[C@@H](O)[C@H]2O)c(=O)n1 [azacitidine]
Fold change vs veh, SNORA58: 1.03
